The record followed here is paper doi:10.1101/2025.09.24.678246 (bioRxiv, 2025).

Values after ≈ are worked out from the molar mass of the structure shown. Values joined by “and” are separate entries in the source; they are usually repeats but may differ in a detail not shown here. Identical values can stand only once. Like-named read-outs stand apart in the source and are kept apart here.

In general, IC50 refers to the concentration that gives 50% inhibition. Low values mean higher potency, high ones lower potency. In general, Vd refers to a proportionality between amount in the body and measured concentration, not a real space. A higher Vd goes with wide distribution into tissue. What is called clearance is the volume of plasma or blood freed of the substance per unit of time. For orientation: half-life means how long it takes for the measured level to halve. A lower half-life goes with rapid decline. In general, AUC(0-inf) refers to total exposure, with the tail of the curve extrapolated. As usually defined, the bioavailability is the share of a dose that reaches the circulation, judged against a reference dose that is usually intravenous. Low values mean poor availability, high ones good availability.

One data set has as its target BioA (Mycobacterium tuberculosis, UniProt P9WQ81). The experiment in a line: BioA inhibition assay (coupled BioA/BioD fluorescence displacement, IC50). It is filed as biochemical. The settings on record: 50 nM BioA.
A further data set can be described thus: in vivo. The following applies: female, CD-1, mouse; for Vd / clearance / half-life: iv; for AUC(0-inf) / bioavailability: po, 25 mg/kg.
Data set [1] deals with Mtb H37Rv. The data set is described as follows: microbe, parasite or virus in culture. In kind it is cell-based, Mycobacterium tuberculosis. The settings on record: biotin-free medium; for MIC50: Mycobacterium tuberculosis, H37RV.
For data set [2], the system named is Mtb H37Rv. The data set is described as follows: C48 biotin deficient TB efficacy study. The following applies: 25mg/kg. In kind it is in vivo, BALB/c mice.
Another data set has as its system M. africanum. The data set is described as follows: MIC screening against M. africanum. It is filed as cell-based. The settings on record: Mycobacterium tuberculosis, MTBC.
The subject of another data set is M. bovis 0AF2122. The experiment in a line: microbe, parasite or virus in culture. It is filed as cell-based. The following applies: Mycobacterium tuberculosis variant bovis.
Data set [3] has as its system Mtb H37Rv. It is filed as in vivo, BALB/c mice. The following applies: for bacterial burden per mouse, Fig. 5B: 10 mg/kg.
The conditions of data set [4]: p.o. 25 mg/kg, CD-1 mice.
The mark [5] stands for this setting: day 7 (values identical to Control: baseline).

Sequence of BioA (P9WQ81 whole entry, looked up): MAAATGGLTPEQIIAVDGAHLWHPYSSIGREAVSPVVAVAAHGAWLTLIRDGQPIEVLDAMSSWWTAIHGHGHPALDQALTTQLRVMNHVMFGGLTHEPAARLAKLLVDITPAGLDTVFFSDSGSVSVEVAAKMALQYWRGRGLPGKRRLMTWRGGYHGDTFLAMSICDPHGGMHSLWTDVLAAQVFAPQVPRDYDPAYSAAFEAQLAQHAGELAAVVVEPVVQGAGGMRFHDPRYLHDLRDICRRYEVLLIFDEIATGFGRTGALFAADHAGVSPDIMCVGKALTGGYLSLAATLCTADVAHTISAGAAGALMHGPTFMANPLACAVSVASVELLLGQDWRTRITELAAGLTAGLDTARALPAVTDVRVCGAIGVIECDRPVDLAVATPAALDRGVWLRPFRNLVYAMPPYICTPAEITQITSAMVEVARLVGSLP

Regarding `O=C1CCc2cc(N3CCN(C(=O)c4ccc(F)c(Br)c4)CC3)ccc21` [C21], the IC50 on BioA is 81 nM. On BioA (C21 1.58114 nM), the activity stood at 106% and the activity at 0.00158114 µM was 106%. Moreover, at BioA (C21 5 nM), the activity was 98% and 96.4%; the activity at 0.005 µM was determined as 102%. Also, at BioA (C21 15.8114 nM), the activity was 91.7% and 90.1%; the activity at 0.0158114 µM amounted to 91.3%. Also, at BioA (C21 50 nM), the activity is 59.9% and 51.5%; the activity at 0.05 µM was 59.5%. For the same compound, at BioA (C21 158.114 nM), the activity is 31.6% and 29.9%; the activity at 0.158114 µM was 32%. On BioA (C21 500 nM), the activity amounted to 25% and the activity at 0.5 µM was determined as 25.1%. Besides, on BioA (C21 1581.14 nM), the activity was 18.2% and 16.8%; the activity at 1.58114 µM is 19.4%. On BioA (C21 5000 nM), the activity is 7.65% and 7.4%; the activity at 5 µM stood at 8.48%. In the data set “in vivo”, this compound showed a Vd of 0.37 L/kg, a clearance of 5.3 mL/min/kg, a half-life of 49.2 min and an AUC(0-inf) of 108000 ng·h/mL. Also, the bioavailability in the data set “in vivo” is > 100%. Further, in the data set on Mtb H37Rv [1], the MIC50 is 1.9 µM (≈ 0.793 µg/mL) and the “increase in potency against Mtb versus 6” value is 6 fold.
Turning to `NNC(=O)c1ccncc1` [INH, isoniazid, reference compound], the “bacterial burden per mouse, Fig. 5C” value with Mtb H37Rv [2] (setting [5]) is 360 and 1090 and 400 and 320 and 700 and 200; in the data set on Mtb H37Rv [2] (day 28), 1. In addition, the “bacterial burden per mouse, Fig. 5D (second organ, not given)” value in the data set on Mtb H37Rv [2] (setting [5]), in the data set with Mtb H37Rv [2] (day 21) and in the data set on Mtb H37Rv [2] (day 28) was 1 throughout.
Turning to `CC(=O)NC[C@H]1CN(c2ccc(N3CCOCC3)c(F)c2)C(=O)O1` [Linezolid, reference compound], the MIC in the data set on M. africanum and against M. bovis 0AF2122 was 1.56 µM (≈ 0.526 µg/mL) each time.
For the compound `CO[C@H]1/C=C/O[C@@]2(C)Oc3c(C)c(O)c4c(O)c(c(/C=N/N5CCN(C)CC5)c(O)c4c3C2=O)NC(=O)/C(C)=C\C=C\[C@H](C)[C@H](O)[C@@H](C)[C@@H](O)[C@@H](C)[C@H](OC(C)=O)[C@@H]1C` [Rifampicin, rifampicin, reference compound], the “bacterial burden per mouse, Fig. 5B” value in the data set on Mtb H37Rv [3] (day 14 (values identical to Vehicle Control: baseline)) was 24500 and 14500 and 16500 and 43500 and 12750; in the data set with Mtb H37Rv [3] (day 28), 8250 and 7500 and 19750 and 6250 and 14250; with Mtb H37Rv [3] (day 42), 2875 and 750 and 950 and 2450 and 2025. Besides, the “spleen CFU” value with Mtb H37Rv [3] (Rifampicin 10mg/kg p.o., Day 42, standard acute model, BALB/c, per mouse) is on record as 0 CFU.
Turning to `CC(=O)c1ccc(N2CCN(C(=O)c3ccc4c(c3)OCO4)CC2)cc1` [compound 6], the plasma concentration in data set [4] (0 h) was 0. In addition, in data set [4] (3 h, 25 mg/kg), the plasma concentration is 32.3 and 18.2 and 24.6. In data set [4] (24 h), the plasma concentration is listed as 1. Further, the IC50 at BioA is 110 nM. In the data set “in vivo”, the Vd came to 0.54 L/kg, the clearance worked out at 30.6 mL/min/kg, the half-life is 12 min and the AUC(0-inf) worked out at 460 ng·h/mL. Moreover, the bioavailability in the data set “in vivo” came out at 3.4%. Also, the MIC50 in the data set with Mtb H37Rv [1] came to 12 µM (≈ 4.23 µg/mL).
